In assay [1] the target is T1, APOL1 G2 (Homo sapiens, UniProt O14791, DEL388-389).
T1 construct: expressed in transfected cells; host or cells: HEK293 T-REx clonal lines: HEK T-REx/GCaMP6f/APOL1 G2 K6.3 in A1, HEK293/T-REx APOL1 G2/clone #2 in A2
T1 sequence (O14791 with tags, fused parts or gaps DEL388-389): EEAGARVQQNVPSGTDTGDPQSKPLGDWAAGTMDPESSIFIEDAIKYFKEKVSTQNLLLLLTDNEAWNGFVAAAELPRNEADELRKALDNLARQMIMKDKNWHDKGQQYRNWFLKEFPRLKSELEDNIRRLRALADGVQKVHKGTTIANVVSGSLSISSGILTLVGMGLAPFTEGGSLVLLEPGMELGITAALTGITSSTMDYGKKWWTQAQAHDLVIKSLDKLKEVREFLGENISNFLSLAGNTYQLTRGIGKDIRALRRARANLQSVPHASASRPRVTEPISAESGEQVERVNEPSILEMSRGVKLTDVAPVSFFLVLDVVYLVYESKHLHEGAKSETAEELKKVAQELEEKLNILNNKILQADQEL
In words: Rescue of HEK293 cell death caused by overexpression of APOL1 (CellTiter-Glo luminescence), HEK293/T-REx APOL1 G2/clone #2. In kind it is cell-based. The conditions noted are these: reversal of cell death caused by overexpression of APOL1; geometric mean of at least 2 assay runs, † = single assay run (technical duplicate). In outline: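 Rescue EC50s come from four-parameter logistic fits, geometric mean of at least 2 runs on separate days, each in duplicate. Readout: CellTiter-Glo luminescence after 17 h at 37 °C of 5,000 HEK293/T-REx APOL1 G2 clone #2 cells/well, with 6 ng/mL doxycycline to induce APOL1 and 3-fold serial compound dilutions in 0.5% DMSO.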
In general terms: ATP-based viability assays read luminescence as a measure of living cells.

In assay [2] the target is T1, APOL1 G2. In words: APOL1 calcium transport inhibition assay (GCaMP6f calcium influx, FLIPR) in HEK T-REx/GCaMP6f/APOL1 G2 K6.3 cells. In kind it is cell-based. The conditions noted are these: inhibition of APOL1-mediated calcium influx; geometric mean of at least 2 assay runs, † = single assay run (technical duplicate). The procedure, abridged:
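HEK293 cells stably expressing GCaMP6f, APOL1 G2 induced 6 h with doxycycline (20 ng/mL added), then washed into Ca2+-free Tyrode's buffer pH 7.4. Compounds (8-point dose response) preincubated 10 min at room temperature, then Ca2+ injected to 5 mM final and influx read on FLIPR. AC50 reported as geometric mean of runs.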

Each structure is given as a SMILES string.

In general, EC50 refers to the concentration giving half of the maximal effect. For orientation: AC50 means the midpoint of the concentration-response curve, whichever way the signal moves.

As for `CC(CN1C[C@@H](COc2ccc(S(C)(=O)=O)cc2)[C@H](C)C1)c1cc(Cl)cc(C#N)c1` (single isomer, unassigned) [Compound 148, 3-chloro-5-[(2S or 2R)-1-[(3S, 4S)-3-[(4-meth-anesulfonylphen-oxy)methyl]-4-methylpyrroli-din-1-yl]propan-2-yl]benzonitrile], the half-maximal effective concentration (EC50) on APOL1 G2 [1] is 80.8 nM. Further, the half-maximal activity concentration (AC50) on APOL1 G2 [2] was found to be 615 nM.
As for `CN(c1ccc(OC[C@H](O)CN2CCC(c3cccc(Cl)c3)C2(C)C)cc1)S(C)(=O)=O` (stereo partly drawn) [Compound 71, N-(4-((2R)-3-(3-(3-chlorophenyl)-2,2-dimethylpyrrolidin-1-yl)-2-hydroxypropoxy)phe-nyl)-N-methylmethanesulfon-amide], at APOL1 G2 [1], the EC50 turned out to be 1960 nM. Also, the concentration at half-maximal activity (AC50) at APOL1 G2 [2] was determined as 943 nM.
On to `CN(c1ccc(OC[C@@H](O)CN2CCC(c3cccc(Cl)c3)C2(C)C)cc1)S(C)(=O)=O` (single isomer, unassigned) [Compound 69, N-(4-((S)-3-((S) or (R)-3-(3-chlorophenyl)-2,2-dimethylpyrrolidin-1-yl)-2-hydroxypropoxy)phe-nyl)-N-methylmethanesulfon-amide], for which the EC50 at APOL1 G2 [1] was above 30000 nM. Besides, the half-maximal activity concentration (AC50) on APOL1 G2 [2] came to 12900 nM.
In the case of `CN(c1ccc(OC[C@@H](O)CNCCc2cc(Cl)cc(Cl)c2)cc1)S(C)(=O)=O` [Compound 91, (S)-N-(4-(3-((3,5-dichlorophenethyl)amino)-2-hydroxypropoxy)phe-nyl)-N-methylmethanesulfon-amide], the 50% effective concentration (EC50) on APOL1 G2 [1] was 1040 nM. On APOL1 G2 [2], the AC50 was 472 nM.
For `COC1CCN(CCc2cccc(Cl)c2)CC1COc1ccc(S(C)(=O)=O)cc1` (single isomer, unassigned) [Compound 38, (3S,4S) or (3R,4S) or (3 S,4R) or (3R,4R)-1-(3-chlorophenethyl)-4-methoxy-3-((4-(methylsulfonyl)phenoxy)methyl) piperidine], the concentration for a half-maximal effect (EC50) on APOL1 G2 [1] turned out to be 407 nM. The AC50 on APOL1 G2 [2] was below 253 nM.
In the same order, the values of `C[C@@H]1C[C@H](COc2ccc(S(C)(=O)=O)cc2)CN1CC(O)c1cc(C#N)cc(C#N)c1` (single isomer, unassigned) [Compound 118, 5-[(1R or 1S)-1-hydroxy-2-[(2R,4S)-4-[(4-methanesulfonylphenoxy)methyl]-2-methylpyrrolidin-1-ylethyl]benzene-1,3-dicarbonitrile] are 4040 nM and 936 nM.
Regarding `C[C@@H]1C[C@H](COc2ccc(S(C)(=O)=O)cc2)CN1CC(O)c1cc(C#N)cc(C#N)c1` (single isomer, unassigned) [Compound 119, 5-[(1S or 1R)-1-hydroxy-2-[(2R,4S)-4-[(4-methanesulfonylphenoxy)methyl]-2-methylpyrrolidin-1-yl]ethyl]benzene-1,3-dicarbonitrile], the concentration giving a half-maximal response (EC50) at APOL1 G2 [1] amounted to 133 nM. The concentration at half-maximal activity (AC50) at APOL1 G2 [2] was 784 nM.
In the same order, the values of `C[C@@H]1CN(CCc2cccc(Cl)c2)C[C@H]1COc1ccc(S(C)(=O)=O)cc1` (racemic) [Compound 52, rac-trans-1-(3-chlorophenethyl)-3-methyl-4-((4-(methylsulfonyl)phenoxy)methyl)pyrrolidine] are 124 nM and 79 nM.
In the same order, the values of `C[C@@H]1CN(CC(O)c2cc(C#N)cc(C#N)c2)C[C@H]1COc1ccc(S(C)(=O)=O)cc1` (single isomer, unassigned) [Compound 130, 5-[(1R or 1S)-1-hydroxy-2-[(3S,4S)-3-[(4-methanesulfonylphenoxy)methyl]-4-methylpyrrolidin-1-yl]ethyl]benzene-1,3-dicarbonitrile] are above 10000 nM and 2170 nM.
Take `CC1CC(COc2ccc(S(C)(=O)=O)cc2)CN1CCc1cccc(Cl)c1` (single isomer, unassigned) [Compound 55, (2R,4S) or (2R,4R) or (2S,4R) or (2S,4S)-1-(3-chlorophenethyl)-2-methyl-4-((4-(methylsulfonyl)phenoxy)methyl)pyrrolidine]: the concentration giving a half-maximal response (EC50) on APOL1 G2 [1] came out at 1680 nM. Besides, the concentration at half-maximal activity (AC50) on APOL1 G2 [2] was 1290 nM.
In the same order, the values of `CC1CC(COc2ccc(S(C)(=O)=O)cc2)CN1CCc1cccc(C#N)c1` (single isomer, unassigned) [Compound 135, rac-cis or trans-3-{2-[4-[(4-methanesulfon-ylphenoxy)meth-yl]-2-methyl-pyrrolidin-1-yl]-ethyl}benzo-nitrile] are 5730 nM and above 12500 nM.
In the same order, the values of `CN(c1ccc(OC[C@@H](O)CN2CCOC(c3cccc(Cl)c3)C2)cc1)S(C)(=O)=O` (stereo partly drawn) [Compound 80, N-(4-((2S)-3-(2-(3-chlorophenyl)morpho-lino)-2-hydroxypropoxy)phe-nyl)-N-methylmethanesulfon-amide] are 13000 nM and 13900 nM.
In the same order, the values of `CC1CC(COc2ccc(S(C)(=O)=O)cc2)CN1CCc1cccc(Cl)c1` (single isomer, unassigned) [Compound 54, rac-cis or trans-1-(3-chlorophenethyl)-2-methyl-4-((4-(methylsulfonyl)phenoxy)methyl)pyrrolidine] are above 30000 nM and below 114 nM.
With `CS(=O)(=O)c1ccc(OC[C@@H](O)CN[C@H]2C[C@H](c3cccc(Cl)c3)C2)cc1` [Compound 66, (S)-1-((trans-3-(3-chlorophenyl)cyclo-butyl)amino)-3-(4-(methylsulfonyl)phe-noxy)propan-2-ol], the concentration giving a half-maximal response (EC50) at APOL1 G2 [1] is 1380 nM. Further, the half-maximal activity concentration (AC50) on APOL1 G2 [2] was 468 nM.
Consider `CN(c1ccc(OC[C@@H](O)CNCCc2cccc(Cl)c2)cc1)S(C)(=O)=O` [Compound 86, (S)-N-(4-(3-((3-chlorophenethyl)a-mino)-2-hydroxypropoxy)phe-nyl)-N-methylmethanesulfon-amide], for which the EC50 at APOL1 G2 [1] is above 4110 nM. In addition, the half-maximal activity concentration (AC50) at APOL1 G2 [2] is 557 nM.
In the same order, the values of `CS(=O)(=O)c1ccc(OC[C@@H]2CN(CCc3cc(Cl)ccc3OC(F)F)CCN2)cc1` [Compound 192, (3S)-1-{2-[5-chloro-2-(difluoromethoxy)phenyl]eth-yl}-3-[(4-methanesulfonylphenoxy)methyl]piperazine] are 915 nM and 260 nM.
In the same order, the values of `CN=S(C)(=O)c1ccc(OC[C@@H]2CN(CCc3cccc(C#N)c3)C[C@H]2C)cc1` (stereo partly drawn) [Compound 169, 3-{2-[(3S,4S)-3-methyl-4-({4-[methyl(methyli-mino)oxo-λ^6-sulfanyl]phenoxy}methyl)pyrrolidin-1-yl]ethyl}benzonitrile] are 182 nM and 79.7 nM.
`C[C@@H]1CN(CCc2cccc(Cl)c2)C[C@H]1COc1ccc(S(=O)(=O)CCO)cc1` (single isomer, unassigned) [Compound 113, 2-(4-{[(35,4S or 3R,4R)-1-[2-(3-chlorophenyl)ethyl]-4-methylpyrrolidin-3-yl]methoxy}benzene-sulfonyl)ethan-1-ol]: on APOL1 G2 [1], the EC50 is 1070 nM. Also, the concentration at half-maximal activity (AC50) at APOL1 G2 [2] was 907 nM.
In the same order, the values of `COC1CCN(CCc2cccc(Cl)c2)CC1COc1ccc(S(C)(=O)=O)cc1` (single isomer, unassigned) [Compound 35, (3S,4R) or (3R,4R) or (3S,4S) or (3R,4S)-1-(3-chlorophenethyl)-4-methoxy-3-((4-(methylsulfonyl)phenoxy)methyl)piperidine] are 6130 nM and 3780 nM.
In the same order, the values of `N#Cc1cc(Cl)cc(CCN2CCN[C@H](COc3ccc(S(=O)(=O)CCO)cc3)C2)c1` [Compound 182, 3-chloro-5-{2-[(3S)-3-{[4-(2-hydroxyethane-sulfonyl)phenoxy]methyl}pi-perazin-1-yl]ethyl}benzo-nitrile] are 399 nM and 396 nM.
For the compound `COC(CN1CCC[C@@H](COc2ccc(S(C)(=O)=O)cc2)C1)c1cccc(Cl)c1` (single isomer, unassigned) [Compound 26, (R)-1-((S)-2-(3-chlorophenyl)-2-methoxyethyl)-3-((4-(methylsulfonyl)phenoxy)methyl)piperidine or (R)-1-((R)-2-(3-chlorophenyl)-2-methoxyethyl)-3-((4-(methylsulfonyl)phenoxy)methyl)piperidine], the half-maximal effective concentration (EC50) on APOL1 G2 [1] was found to be 2240 nM. On APOL1 G2 [2], the half-maximal activity concentration (AC50) amounted to 1540 nM.
In the same order, the values of `CN(c1ccc(NCC(O)CNCCc2cccc(Cl)c2)cc1)S(C)(=O)=O` (stereo not shown) [Compound 105, N-(4-((3-((3-chlorophenethyl)a-mino)-2-hydroxypropyl)ami-no)phenyl)-N-methylmethanesulfon-amide] are above 12400 nM and 946 nM.
In the same order, the values of `CC1CC(COc2ccc(S(C)(=O)=O)cc2)CN1CCc1cccc(Cl)c1` (single isomer, unassigned) [Compound 58, (2S,4S) or (2R,4S) or (2R,4R) or (2S,4R)-1-(3-chlorophenethyl)-2-methyl-4-((4-(methylsulfonyl)phenoxy)methyl)pyrrolidine] are below 41 nM and 72.7 nM.

Values taken from US20240316038A1, “APOL1 INHIBITORS AND METHODS OF USE” (Maze Therapeutics, Inc., priority 2021, published 2024).
